Reference: paper PMC10525516, “Novel NADPH Oxidase-2 Inhibitors as Potential Anti-Inflammatory and Neuroprotective Agents” (Antioxidants, 2023)

Key:
[1] = target: T1, Nox2 (Homo sapiens, UniProt P04839); test: Amplex Red/HRP assay of H2O2 production by PMA-activated dHL60 cells; format: cell-based; settings: PMA (1 µM)-activated dHL60 cells, 30 min preincubation; read-out: IC50, inhibition of H2O2 production, Amplex Red Assay
T1 construct: endogenous in cells
T1 sequence (P04839 2-570 limits assumed): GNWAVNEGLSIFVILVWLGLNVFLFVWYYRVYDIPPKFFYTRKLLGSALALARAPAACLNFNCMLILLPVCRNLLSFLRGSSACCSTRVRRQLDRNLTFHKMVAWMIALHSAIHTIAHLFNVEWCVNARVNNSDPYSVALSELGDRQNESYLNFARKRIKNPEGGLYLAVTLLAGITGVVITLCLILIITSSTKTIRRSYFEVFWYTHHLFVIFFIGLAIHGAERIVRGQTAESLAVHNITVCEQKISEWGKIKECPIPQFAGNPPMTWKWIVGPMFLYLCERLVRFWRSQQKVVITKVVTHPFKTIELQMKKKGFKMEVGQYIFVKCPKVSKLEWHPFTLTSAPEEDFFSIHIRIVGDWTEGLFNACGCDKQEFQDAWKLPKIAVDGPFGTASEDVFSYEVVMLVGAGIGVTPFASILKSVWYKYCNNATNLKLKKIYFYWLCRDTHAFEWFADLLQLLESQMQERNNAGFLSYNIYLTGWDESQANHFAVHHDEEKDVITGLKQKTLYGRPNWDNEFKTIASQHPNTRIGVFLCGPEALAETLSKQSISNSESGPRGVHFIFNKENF
T1 sequence (P13498 2-195 partner limits assumed): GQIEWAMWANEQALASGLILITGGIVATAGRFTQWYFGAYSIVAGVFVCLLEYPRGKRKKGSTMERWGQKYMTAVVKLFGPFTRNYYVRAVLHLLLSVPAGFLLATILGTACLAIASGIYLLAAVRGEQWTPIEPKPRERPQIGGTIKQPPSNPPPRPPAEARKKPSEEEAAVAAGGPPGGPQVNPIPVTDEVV
Experimental: (§1) Human promyelocytic leukemia HL60 cells (Sigma-Aldrich) were grown in RPMI 1640 medium (Gibco, 11875-093, Billings, MT, USA) supplemented with 10% FBS (Omega Scientific (Tarzana, CA, USA)), 100 units/mL penicillin, and 100 µg/mL streptomycin, and were incubated at 37 °C and 5% carbon dioxide (CO2). For differentiation to neutrophil-like cells, HL60 cells were pelleted and resuspended in fresh media containing 1 µM of all trans-retinoic acid and incubated for four to five days. Nox2 activation was achieved by treating differentiated HL60 (dHL60) cells with 1 µM PMA [24]. Human leukemia monocytic cells, THP-1, were grown in RPMI 1640 medium + GlutaMAX^TM (Gibco, 61870-036) and supplemented with 10% FBS, 10 mM HEPES, and 1 mM sodium pyruvate and incubated at 37 °C in 5% CO2 environment. To induce differentiation into macrophages, THP-1 cells were treated with PMA (100 ng/mL) for 48 h. To test the efficacy of Nox2 inhibitors, treatment was performed with or without the inhibitor, along with PMA [35].
Plate reader-based analyses of the production of O2^•− and H2O2 by PMA-activated dHL60 cells were performed according to a published protocol with minor modifications. Briefly, for the treatment of dHL60 cells with different concentrations of the compounds, 0.5 mL deep-well 96-well plates were used to dispense and store aliquots of their 10 mM DMSO solutions. Using a Multidrop™ PicoIT dispenser (Thermo Scientific), different volumes of the solutions of candidate Nox inhibitors (10 or 50 mM in DMSO) were injected into the bottom of 0.5 mL V-bottom 96-well plates; then, they were sealed with aluminum foil (VWR, Batavia, IL, USA) using a semiautomatic thermal sealer (BT LabSystems, St. Louis, MO, USA) and stored at −20 °C to reduce freeze-thawing the solutions. The plates with inhibitors were allowed to come to room temperature before the addition of the cell suspensions. dHL60 cells were pelleted and resuspended in HBSS (Invitrogen, Waltham, MA, USA) supplemented with 25 mM HEPES (pH 7.4) and 100 µM DTPA to a cell density of 2 × 10^5 cells/mL. dHL60 cells were added to the V-bottom plates at a volume of 210 µL/well. Next, cells were incubated with inhibitors for 30 min at 37 °C in a CO2-free incubator under ambient oxygen and then transferred to black, clear-bottom 96-well plates (200 µL/well) after incubation. Freshly prepared PMA plus probe solutions in HBSS (5× concentrated, 50 µL/well) included PMA (5 µM) with CBA (500 µM) or with Amplex Red (250 µM) plus HRP (0.5 U/mL) for H2O2 detection, or with HE (50 µM) plus DNA (0.5 mg/mL) for O2^•− detection. Once probes + PMA were added, plates were sealed with sealing film and immediately placed in the pre-warmed plate readers (37 °C). Fluorescence intensities were monitored kinetically from the bottom of the plates every 1.3 min for a period of 2 h using Beckman Coulter (Brea, CA, USA) DTX880 and BMG Labtech (Ortenberg, Germany) FLUOstar Omega plate readers. DMSO alone and DPI (10 µM) were used as negative and positive controls, respectively. […] The IC50 values were determined using at least five independent measurements, each consisting of technical quadruplicates per concentration.

[2] = target: T1, Nox2; test: Plate reader hydroethidine (HE + DNA) assay of O2•− production by PMA-activated dHL60 cells; format: cell-based
Experimental: Human promyelocytic leukemia HL60 cells (Sigma-Aldrich) were grown in RPMI 1640 medium (Gibco, 11875-093, Billings, MT, USA) supplemented with 10% FBS (Omega Scientific (Tarzana, CA, USA)), 100 units/mL penicillin, and 100 µg/mL streptomycin, and were incubated at 37 °C and 5% carbon dioxide (CO2). For differentiation to neutrophil-like cells, HL60 cells were pelleted and resuspended in fresh media containing 1 µM of all trans-retinoic acid and incubated for four to five days. Nox2 activation was achieved by treating differentiated HL60 (dHL60) cells with 1 µM PMA [24]. […]
Plate reader-based analyses of the production of O2^•− and H2O2 by PMA-activated dHL60 cells were performed according to a published protocol with minor modifications. […] Once probes + PMA were added, plates were sealed with sealing film and immediately placed in the pre-warmed plate readers (37 °C). Fluorescence intensities were monitored kinetically from the bottom of the plates every 1.3 min for a period of 2 h using Beckman Coulter (Brea, CA, USA) DTX880 and BMG Labtech (Ortenberg, Germany) FLUOstar Omega plate readers. […] The IC50 values were determined using at least five independent measurements, each consisting of technical quadruplicates per concentration.

[3] = system: THP-1 cells; test: qRT-PCR mRNA expression of Nox2 subunits and inflammatory mediators in PMA-treated THP-1 cells; format: cell-based, human; settings: 3 µM, 48 h with PMA 100 ng/mL
Experimental: as §1
mRNA expression analysis was performed as previously described. Briefly, THP-1 cells were treated with PMA (100 ng/mL) with or without the Nox2 inhibitor TG15-132 (3.0 µM) for 48 h. RNA extraction was done using the Quick-RNA miniprep kit (cat. no. R1055, Zymo Research, Irvine, CA, USA) and followed by cDNA synthesis using the qScript cDNA superMix kit (cat. no. 84035, Quantabio, Beverly, MA, USA). Quantitative real-time PCR was performed using specific primers designed to amplify target genes (Table 2). Data obtained were analyzed and converted into fold changes in expression with respect to vehicle-treated cells.

SMILES: CN(C)CCCn1c(SCCc2c[nH]c3ccccc23)nc2ccc(F)cc2c1=O [TG15-132]
- IC50 [1]: 7.9 ± 3 µM
- IC50 ([2]; HE probe + DNA, plate reader, PMA-activated dHL60 cells, Figure 5C, read-out: IC50, inhibition of O2•− production): 5 µM
- PMA-stimulated increase in HE fluorescence intensity ([2]; cell pretreatment, Figure 5B,C): dose-dependently inhibited
- mRNA expression vs PMA-treated cells, additional experiment (Figure 7B) [3]: statistically significant reduction in the expression of p47^phox, IL-1β, and TNF
- mRNA expression vs cells treated with PMA alone (Figure 7A) [3]: reduced the expression of gp91^phox, p47^phox, p67^phox, IL-1β, and TNF
